In patent USRE39706E1, “Crystalline form of a vitamin D analogue” (Leo Pharma A/S, priority 1993, dated 2007):
Where two headings read alike, the source gives them in different places.

Assay: Stability studies, storage at 40° C.
Assay type: physicochemical

SMILES	degradation after 12 months storage	degradation after 12 months storage (hydrate)
C=C1/C(=C\C=C2/CCC[C@]3(C)[C@@H]([C@H](C)/C=C/[C@@H](O)C4CC4)CC[C@@H]23)C[C@@H](O)C[C@@H]1O [anhydrous form of calcipotriol, (1α,3β,5Z,7E,22E,24S)-24-Cyclopropyl-9,10-secochola-5,7,10(19), 22-tetraene-1,3,24-triol]	more than 30%	–
C=C1/C(=C\C=C2/CCC[C@]3(C)[C@@H]([C@H](C)/C=C/[C@@H](O)C4CC4)CC[C@@H]23)C[C@@H](O)C[C@@H]1O [calcipotriol hydrate, calcipotriol, hydrate]	–	no degradation
